Values of other authors, collected in patent publication US20140170075A1, “NON-INVASIVE IMAGING METHODS FOR PATIENT SELECTION FOR TREATMENT WITH NANOPARTICULATE THERAPEUTIC AGENTS” (Merrirnack Pharmaceuticals, Inc., priority 2012, published 2014).

Test system: cancer cell proliferation
Conditions: more active than irinotecan

For `CCc1c2c(nc3ccc(O)cc13)-c1cc3c(c(=O)n1C2)COC(=O)[C@]3(O)CC` [SN-38], the “activity as an inhibitor of cancer cell proliferation relative to irinotecan” value is given as 100-1000 ×.
